Experimental findings from US20180369186A1, “METHOD FOR MODULATING AUTOPHAGY AND APPLICATIONS THEREOF” (JAWAHARLAL NEHRU CENTRE FOR ADVANCED SCIENTIFIC RESEARCH, priority 2015, published 2018) are described below.

One assay relates to EGFP-α-synuclein. Kind of assay: EGFP-α-synuclein degradation assay in SH-SY5Y cells. It is filed as cell-based, human. The method, then:
For EGFP-α-synuclein degradation assay, equal numbers of sub-confluent SH-SY5Y cells are seeded in 6 well dishes and allowed to attach for 24 h. Cells are transfected with EGFP-α-synuclein plasmid using Lipofectamine 2000 (Life technologies) and allowed to express for 24 h.
After treatments, cells are collected in Laemmli buffer to perform LC3 processing assay, P70S6K, GSK3β and 4E-BP1 immunoblotting. To validate EGFP-α-synuclein degradation by 6-Bio, treated cells are scraped and collected in growth medium. After washing with phosphate buffer, pellets are lysed in Laemmli buffer and boiled for 10 min.
Samples are electrophoresed on SDS-PAGE (8-15%) and then transferred onto PVDF (Bio-Rad) membrane using Transblot turbo (Bio-Rad). Transferred blots are stained with Ponceau S, probed with appropriate primary antibodies overnight and subsequently horseradish peroxidase conjugated secondary antibody. Signals are developed using enhanced chemiluminescence substrate (Clarity, Bio-Rad), imaged using a gel documentation system (G-Box, Syngene) and bands are quantified using image software (NIH). (FIGS. 4F and 5A)

The subject of a further assay is p62/SQSTM1. Kind of assay: p62 aggregate immunofluorescence in MEFs. The following applies: 5 μM, 24 h and 48 h. The class given is cell-based, mouse. Here is the method: Immunofluorescence analysis in MEFs is carried out by fixing the cells with 4% methanol free paraformaldehyde for 15 minutes, permeabilised with 0.5% TritonX-100 in PBS for 10 minutes, and then blocking with 5% FES in PBS for 30 minutes at room temperature, along with PBS washes in between every steps. Anti-p62 antibody (Progen Biotechnik, GP62-C) is used at 1:250 dilution in […] in PBS and incubated overnight at 4° C. Cells are then washed and incubated with goat anti-guinea pig Alexa 594 (ThermoFisher Scientific, A-15 11076) secondary antibody at 1:1000 dilution for 1 hour at room temperature. Cells are washed, counterstained with DAPI (ThermoFisher Scientific, D1306) in PBS for 5 minutes, washed again and then mounted using Prolong diamond anti-fade reagent (ThermoFisher Scientific, P36970). Slides are imaged using a Zeiss LSM 510 Meta Confocal Microscope using 100× objective. Analysis is performed by assessing for the percentage of cells displaying an accumulation of endogenous p62-positive aggregates.
Analysis of p62 aggregates is done as described previously. […] The percentage of cells with increased p62+ aggregates is quantified by assessing 200 cells per condition from independent experiments, in which a cell with an accumulation of p62+ aggregates was given a score of 1 whereas a cell having basal (low) levels of p62+ aggregates was given a score of 0.

Assay [1] relates to lace plant (Aponogeton madagascariensis) cells. Kind of assay: Lace plant leaf MDC staining of punctate structures. It is filed as cell-based. Here is the method: Axenic lace plant cultures are grown in magenta boxes and prepared according to Gunawardena et al. Leaves in the window stage are removed from the corm and rinsed thoroughly with distilled water prior to being sectioned into 2 mm^2 pieces. For starvation treatments, window stage leaves are removed from the plant, placed in distilled water and kept in the dark overnight.
Leaf sections are stained with monodansylcadaverine (MDC; 300 μM) (Sigma, D4008) and simultaneously treated with autophagy modulators for 2 hours in the dark. (1 hour vacuum infiltration at 15 psi). Treatment times, along with stain and modulator applications are optimized using concentration gradients followed by microscopy. The optimized concentrations are 5 μM rapamycin (Enzo Life Sciences (BML A275-0005), 5 μM wortmannin (Santa Cruz Biotechnology, sc-3505), 1 μM concanamycin A (Santa Cruz Biotechnology, sc-202111), 50 μM Bay 11 (Sigma, B5556) and 50 μM ZPCK (Sigma, 860794).
Tissue sections are then rinsed and mounted in distilled water prior to being scanned using a Nikon Eclipse Ti confocal microscope (Nikon 40X/1.30, Plan Fluor, 405 nm excitation and 450/30 nm emission). Areoles in the early phases of PCD are scanned to avoid cellular debris. The mean number of puncta are quantified for each treatment group with a minimum of four independent experiments using NIS Elements Advanced Research software. Additionally, starvation treatment leaves are also exposed to 5 μM, wortmannin, 50 μM Bay11 and 50 μM ZPCK treatments and then qualitatively assessed via confocal microscopy.

The next assay relates to Atg8. Description: Atg8 immunolocalization in lace plant. The class given is cell-based, Aponogeton madagascariensis. The note with it: two hours; same modulator concentrations as MDC; control 0.90±0.08. The method, then:
Whole leaves are treated for two hours prior to fixation in 100% Methanol at 37° C. and then hydrophilized to 20% methanol by adding distilled water at 60° C. every two minutes for 32 minutes. Samples are then sectioned and placed on a multiwall slide and allowed to air dry for 10 minutes to facilitate membrane permeabilization. Blocking is done for 30 minutes at 37° C. with 4% low fat milk powder in 1× microtubule stabilization buffer MTSB (Modified 2× MTSB stock solution: 15 g PIPES, 1.9 g EDTA, 1.22 g MgSO4*7H2O and 2.5 g KOH—pH 7.0). Primary antibody incubation for anti-rabbit ATG8 (Agrisera, AS14 2769) is done at a 1:1000 dilution in 1× MTSB for 30 minutes at 37° C. Samples are then washed for 5 minutes, 3 times with 1× MTSB. Secondary antibody incubation with Goat anti-rabbit Dylight 488 (Agrisera AS09 633) at a 1:2000 dilution in 1× MTSB is done for 30 minutes at 37° C. and then samples are rinsed as above. Tissues are mounted in Mowiol 4-88 solution (Sigma, 81381) and scanned via confocal microscopy as mentioned above. The mean number of puncta per cell is determined using maximum intensity projections (MIPs) for each replicate. The total number of cells within a field of view are counted manually and the number of puncta are counted automatically using ImageJ.

The next assay has as its system LC3-II. Description: LC3 processing assay in SH-SY5Y cells. It is filed as cell-based, human. The following applies: 5 μM, 2 h; untreated vs treated. The method, then: The autophagy assays are performed by seeding equal numbers of sub-confluent 1-HeLa or SH-SY5Y cells in 6-well dishes and allowed to attach for 24 h, then treated with XCT 790 (5 μM) and/or 3-MA (5 mM) and/or lithium chloride (10 mM) in fed condition for 2 h. After treatments, the cell lysates are analyzed by immunoblotting.
Mammalian cell lysates preparation: After treatments, cells are collected in Laemmli buffer to perform LC3 processing assay, P70S6K, AMPK, ULK1 and 4E-BP1 immunoblotting. Samples are electrophoresed onto SDS-PAGE (8-15%) and then transferred onto PVDF (Bio-Rad) membrane through Transblot turbo (Bio-Rad). Blots are stained with Ponceau S, then probed with appropriate primary antibodies at 4° C. for overnight and subsequently HRP-conjugated secondary antibody. Signals are attained using enhanced chemiluminescence substrate (Clarity, Bio-Rad) and imaged using a gel documentation system (G Box, Syngene) and then bands are quantitated using Image software (NIH).

Turning to `O=C1Nc2cc(Br)ccc2/C1=C1/Nc2ccccc2/C1=N\O` [6-Bio, (2′Z,3′E)-6-Bromoindirubin-3′-oxime], the “reduction of EGFP-α-synuclein levels” value with EGFP-α-synuclein (5 μM, 24 h, versus untreated) is on record as ~2 fold. Besides, in the assay on EGFP-α-synuclein (with 3-methyl adenine (5 mM)), the “EGFP-α-synuclein levels on co-treatment with 3-MA” value is recorded as “does not change”.
With `Cc1ccc(S(=O)(=O)/C=C/C#N)cc1` [Bay11, 3-[(4-methylphenyl)sulfonyl]-(2E)-propenenitrile], the “endogenous p62 aggregates” value with p62/SQSTM1 is recorded as “significant accumulation of endogenous p62 aggregates”. For the same compound, in assay [1] (2 hours, 5 μM wortmannin, 50 μM Bay11, 1 μM concanamycin A, rapamycin, 50 μM ZPCK, control 0.99±0.12), the “mean number of punctate structures per cell (MDC)” value is reported as 0.28±0.07. Also, the “puncta in overnight starvation leaves” value in assay [1] (overnight starvation combined with 5 μM wortmannin, 50 μM Bay11 or 50 μM ZPCK) is reported as “fewer puncta”. Also, the “mean number of Atg8 puncta per cell” value with Atg8 was 0.22±0.03.
For `COc1cc(C=C(C#N)C(=O)Nc2nnc(C(F)(F)F)s2)ccc1OCc1ccc(C(F)(F)F)cc1C(F)(F)F` [XCT 790, 3-[4-(2,4-Bis-trifluoromethylbenzyloxy)-3-methoxyphenyl]-2-cyano-N-(5-trifluoromethyl-1,3,4-thiadiazol-2-yl)acrylamide], the “accumulation of LC3-II levels” value with LC3-II was ~2.5 fold.
